#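 Test compounds were applied to cells in 96-well plates for 48 hours at 5 doses. GI50: concentration for 50% inhibition of growth.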 Calls of active or inactive are those of the source. Rule as the data show it: active = GI50 up to about 1.1 µM and inactive = higher.
# Columns and labels:
# Test in all cases: NCI-60 cell line screen, 48 h
# LOX IMVI = tested on: LOX IMVI
# OVCAR-3 = tested on: OVCAR-3
# RXF 631 = tested on: RXF 631
# UO-31 = tested on: UO-31
# TK-10 = tested on: TK-10
# XF498 = tested on: XF498
# OVCAR-8 = tested on: OVCAR-8
# CAKI-1 = tested on: CAKI-1
# HT-29 = tested on: HT-29
# A549 = tested on: A549
# LXFL 529 = tested on: LXFL 529
# HOP-18 = tested on: HOP-18
# SK-OV-3 = tested on: SK-OV-3
# NCI-H522 = tested on: NCI-H522
# HOP-62 = tested on: HOP-62
# SK-MEL-5 = tested on: SK-MEL-5
# OVCAR-5 = tested on: OVCAR-5
# UACC-62 = tested on: UACC-62
# OVCAR-4 = tested on: OVCAR-4
# SR = tested on: SR
# SK-MEL-2 = tested on: SK-MEL-2
# SK-MEL-28 = tested on: SK-MEL-28
# M14 = tested on: M14
# COLO 205 = tested on: COLO 205
# SNB-78 = tested on: SNB-78
# NCI-H460 = tested on: NCI-H460
# UACC-257 = tested on: UACC-257
# HCT-116 = tested on: HCT-116
# DLD-1 = tested on: DLD-1
# NCI-H23 = tested on: NCI-H23
# DMS-114 = tested on: DMS-114
# KM12 = tested on: KM12
# SF-268 = tested on: SF-268
# MOLT-4 = tested on: MOLT-4
# IGROV-1 = tested on: IGROV-1
# SNB-19 = tested on: SNB-19
# K562 = tested on: K562
# U-251 = tested on: U-251
# ACHN = tested on: ACHN
# A498 = tested on: A498
# SNB-75 = tested on: SNB-75
# RXF 393 = tested on: RXF 393
# SF-539 = tested on: SF-539
# SN12C = tested on: SN12C
# SW-620 = tested on: SW-620
# Malme-3M = tested on: Malme-3M
# HL-60 = tested on: HL-60
# HCT-15 = tested on: HCT-15
# CCRF-CEM = tested on: CCRF-CEM
# HOP-92 = tested on: HOP-92
# 786-0 = tested on: 786-0
# EKVX = tested on: EKVX
# SF-295 = tested on: SF-295
# DMS-273 = tested on: DMS-273
# RPMI-8226 = tested on: RPMI-8226
# M19-MEL = tested on: M19-MEL
# HCC 2998 = tested on: HCC 2998
# NCI-H226 = tested on: NCI-H226
# KM-20L2 = tested on: KM-20L2
smiles,measurement,setting,value
NC1C2(CCCCCC2)NC(=O)C12CCCCCC2 (stereo not drawn),GI50,LOX IMVI,> 100 µM (inactive)
same,GI50,OVCAR-3,> 100 µM (inactive)
same,GI50,RXF 631,> 100 µM (inactive)
same,GI50,UO-31,> 100 µM (inactive)
same,GI50,TK-10,> 100 µM (inactive)
same,GI50,XF498,> 100 µM (inactive)
same,GI50,OVCAR-8,> 100 µM (inactive)
same,GI50,CAKI-1,> 100 µM (inactive)
same,GI50,HT-29,> 100 µM (inactive)
same,GI50,A549,> 100 µM (inactive)
same,GI50,LXFL 529,> 100 µM (inactive)
same,GI50,HOP-18,> 100 µM (inactive)
same,GI50,SK-OV-3,> 100 µM (inactive)
same,GI50,NCI-H522,> 100 µM (inactive)
same,GI50,HOP-62,> 100 µM (inactive)
same,GI50,SK-MEL-5,> 100 µM (inactive)
same,GI50,OVCAR-5,> 100 µM (inactive)
same,GI50,UACC-62,> 100 µM (inactive)
same,GI50,OVCAR-4,> 100 µM (inactive)
same,GI50,SR,> 100 µM (inactive)
same,GI50,SK-MEL-2,> 100 µM (inactive)
same,GI50,SK-MEL-28,> 100 µM (inactive)
same,GI50,M14,> 100 µM (inactive)
same,GI50,COLO 205,> 100 µM (inactive)
same,GI50,SNB-78,> 100 µM (inactive)
same,GI50,NCI-H460,> 100 µM (inactive)
same,GI50,UACC-257,> 100 µM (inactive)
same,GI50,HCT-116,> 100 µM (inactive)
same,GI50,DLD-1,> 100 µM (inactive)
same,GI50,NCI-H23,> 100 µM (inactive)
same,GI50,DMS-114,> 100 µM (inactive)
same,GI50,KM12,> 100 µM (inactive)
same,GI50,SF-268,> 100 µM (inactive)
same,GI50,MOLT-4,> 100 µM (inactive)
same,GI50,IGROV-1,> 100 µM (inactive)
same,GI50,SNB-19,> 100 µM (inactive)
same,GI50,K562,> 100 µM (inactive)
same,GI50,U-251,> 100 µM (inactive)
same,GI50,ACHN,> 100 µM (inactive)
same,GI50,A498,> 100 µM (inactive)
same,GI50,SNB-75,> 100 µM (inactive)
same,GI50,RXF 393,> 100 µM (inactive)
same,GI50,SF-539,> 100 µM (inactive)
same,GI50,SN12C,> 100 µM (inactive)
same,GI50,SW-620,> 100 µM (inactive)
same,GI50,Malme-3M,> 100 µM (inactive)
same,GI50,HL-60,> 100 µM (inactive)
same,GI50,HCT-15,> 100 µM
same,GI50,CCRF-CEM,> 100 µM (inactive)
same,GI50,HOP-92,> 100 µM (inactive)
same,GI50,786-0,> 100 µM (inactive)
same,GI50,EKVX,> 100 µM (inactive)
same,GI50,SF-295,> 100 µM (inactive)
same,GI50,DMS-273,> 100 µM (inactive)
Cc1cccc(-c2cc(=O)c3cc(C)c(C)c(C(=O)O)c3o2)c1,GI50,LOX IMVI,> 100 µM (inactive)
same,GI50,OVCAR-3,> 100 µM (inactive)
same,GI50,RXF 631,> 100 µM (inactive)
same,GI50,UO-31,> 100 µM (inactive)
same,GI50,TK-10,> 100 µM (inactive)
same,GI50,XF498,> 100 µM (inactive)
same,GI50,OVCAR-8,> 100 µM (inactive)
same,GI50,RPMI-8226,> 100 µM (inactive)
same,GI50,CAKI-1,> 100 µM (inactive)
same,GI50,HT-29,> 100 µM (inactive)
same,GI50,A549,> 100 µM (inactive)
same,GI50,LXFL 529,> 100 µM (inactive)
same,GI50,HOP-18,> 100 µM (inactive)
same,GI50,SK-OV-3,> 100 µM (inactive)
same,GI50,NCI-H522,> 100 µM (inactive)
same,GI50,HOP-62,> 100 µM (inactive)
same,GI50,SK-MEL-5,> 100 µM (inactive)
same,GI50,OVCAR-5,> 100 µM (inactive)
same,GI50,UACC-62,> 100 µM (inactive)
same,GI50,OVCAR-4,> 100 µM (inactive)
same,GI50,SR,> 100 µM (inactive)
same,GI50,SK-MEL-2,> 100 µM (inactive)
same,GI50,SK-MEL-28,> 100 µM (inactive)
same,GI50,M19-MEL,> 100 µM (inactive)
same,GI50,M14,> 100 µM (inactive)
same,GI50,COLO 205,> 100 µM (inactive)
same,GI50,HCC 2998,> 100 µM (inactive)
same,GI50,SNB-78,> 100 µM (inactive)
same,GI50,NCI-H460,> 100 µM (inactive)
same,GI50,NCI-H226,> 100 µM (inactive)
same,GI50,KM-20L2,> 100 µM (inactive)
same,GI50,UACC-257,> 100 µM (inactive)
same,GI50,HCT-116,> 100 µM (inactive)
same,GI50,DLD-1,> 100 µM (inactive)
same,GI50,NCI-H23,> 100 µM (inactive)
same,GI50,DMS-114,> 100 µM (inactive)
same,GI50,KM12,> 100 µM (inactive)
same,GI50,MOLT-4,> 100 µM (inactive)
same,GI50,IGROV-1,> 100 µM (inactive)
same,GI50,SNB-19,> 100 µM (inactive)
same,GI50,K562,> 100 µM (inactive)
same,GI50,U-251,> 100 µM (inactive)
same,GI50,ACHN,> 100 µM (inactive)
same,GI50,SNB-75,> 100 µM (inactive)
same,GI50,SF-539,> 100 µM (inactive)
same,GI50,SN12C,> 100 µM (inactive)
same,GI50,SW-620,> 100 µM (inactive)
same,GI50,Malme-3M,> 100 µM (inactive)
same,GI50,HL-60,> 100 µM (inactive)
same,GI50,HCT-15,> 100 µM
same,GI50,CCRF-CEM,> 100 µM (inactive)
same,GI50,HOP-92,> 100 µM (inactive)
same,GI50,786-0,> 100 µM (inactive)
same,GI50,EKVX,> 100 µM (inactive)
same,GI50,SF-295,> 100 µM (inactive)
same,GI50,DMS-273,> 100 µM (inactive)
Cc1ccc(S(=O)(=O)Nc2cccc(C)c2C)cc1,GI50,LOX IMVI,62.5 µM (inactive)
same,GI50,OVCAR-3,34 µM (inactive)
same,GI50,RXF 631,66.1 µM (inactive)
same,GI50,UO-31,30.8 µM (inactive)
same,GI50,TK-10,65.3 µM (inactive)
same,GI50,XF498,< 0.01 µM (active)
same,GI50,OVCAR-8,72.4 µM (inactive)
same,GI50,RPMI-8226,> 100 µM (inactive)
same,GI50,HT-29,74.1 µM (inactive)
same,GI50,A549,59.6 µM (inactive)
same,GI50,LXFL 529,56.2 µM (inactive)
same,GI50,HOP-18,> 100 µM (inactive)
same,GI50,SK-OV-3,56.9 µM (inactive)
same,GI50,HOP-62,86.3 µM (inactive)
same,GI50,SK-MEL-5,31.2 µM (inactive)
same,GI50,OVCAR-5,57.7 µM (inactive)
same,GI50,UACC-62,66.1 µM (inactive)
same,GI50,OVCAR-4,19.5 µM (inactive)
same,GI50,SR,52.5 µM (inactive)
same,GI50,SK-MEL-28,30.4 µM (inactive)
same,GI50,M19-MEL,67.5 µM (inactive)
same,GI50,M14,37.9 µM (inactive)
same,GI50,COLO 205,59.7 µM (inactive)
same,GI50,HCC 2998,> 100 µM (inactive)
same,GI50,SNB-78,62.1 µM (inactive)
same,GI50,NCI-H460,46.6 µM (inactive)
same,GI50,NCI-H226,56.4 µM (inactive)
same,GI50,UACC-257,30.8 µM (inactive)
same,GI50,HCT-116,49.1 µM (inactive)
same,GI50,NCI-H23,28.1 µM (inactive)
same,GI50,DMS-114,28.8 µM (inactive)
same,GI50,KM12,52.7 µM (inactive)
same,GI50,SF-268,86.7 µM (inactive)
same,GI50,MOLT-4,45.5 µM (inactive)
same,GI50,IGROV-1,82.4 µM (inactive)
same,GI50,SNB-19,> 100 µM (inactive)
same,GI50,K562,36.6 µM (inactive)
same,GI50,U-251,28.4 µM (inactive)
same,GI50,A498,> 100 µM (inactive)
same,GI50,SNB-75,22.5 µM (inactive)
same,GI50,RXF 393,19 µM (inactive)
same,GI50,SF-539,> 100 µM (inactive)
same,GI50,SN12C,55.1 µM (inactive)
same,GI50,SW-620,86.7 µM (inactive)
same,GI50,Malme-3M,96.8 µM (inactive)
same,GI50,HL-60,32.2 µM (inactive)
same,GI50,HCT-15,41.1 µM
same,GI50,CCRF-CEM,40.5 µM (inactive)
same,GI50,HOP-92,29.5 µM (inactive)
same,GI50,786-0,> 100 µM (inactive)
same,GI50,EKVX,73.5 µM (inactive)
same,GI50,SF-295,33.7 µM (inactive)
same,GI50,DMS-273,45.6 µM (inactive)

# Reference: ChEMBL document CHEMBL1201862, “PubChem BioAssay data set” (2004)
